Test results published in PubChem BioAssay (NCI).
Several values for one entry are separate records, joined by “and”; a condition that tells them apart may be missing. Identical values can stand only once.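 Growth conditions: 96-well plates. Treatment: test compound, 48 hours, 5 concentrations. Analysis: linear interpolation between bracketing concentrations; unreached endpoints set to highest concentration. At the TGI there is no net growth.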

Columns and labels:
Test in all cases: NCI tumour cell line growth inhibition, 48 h
[1] = tested on: HCT-116 colon
[2] = tested on: HL-60(TB) leukemia
[3] = tested on: LOX IMVI melanoma
[4] = tested on: M14 melanoma
[5] = tested on: NCI-H522 lung
[6] = tested on: OVCAR-3 ovarian
[7] = tested on: OVCAR-5 ovarian
[8] = tested on: RPMI-8226 leukemia
[9] = tested on: SW-620 colon
[10] = tested on: EKVX NSCLC

SMILES | TGI [1] [µM] | TGI [2] | TGI [3] [µM] | TGI [4] [µM] | TGI [5] [µM] | TGI [6] [µM] | TGI [7] [µM] | TGI [8] | TGI [9] [µM] | TGI [10] [µM]
Cc1ccc(N=C/C=C(\Nc2ccc(C)cc2)c2ccc3ccccc3c2)cc1 | 2.99 | 2.02 µM | 1.91 | 8.69 | 11 | 11.2 | 6.24 | 2.56 µM | 24.9 | –
O=C1c2ccncc2C(=O)c2c(O)ccc(O)c21 | 10.3 | 5.41 µM | 18.3 | 19.5 | – | 5.81 | 29.9 | 30.4 µM | 11.5 | 32.1
CCOc1ccc2nc3nc(=O)[nH]c(C)c3c(NC(C)(CO)CO)c2c1 | > 100 | > 100 µM | > 100 | > 100 | > 100 | > 100 | > 100 | – | > 100 | > 100
COc1c(C)c(C/C=C(\C)CCCC(C)CCCC(C)CCCC(C)C)c(OC)c2ccccc12 (stereo not drawn) | > 100 | – | > 100 | > 100 | > 100 | > 100 | > 100 | > 100 µM | > 100 | > 100
CC(=O)/C=C/c1ccccc1 | > 100 | > 100 µM | – | 85 | 32.6 | – | > 100 | > 100 µM | > 100 | > 100
COC(=O)[C@@H](NS(=O)(=O)CC12CCC(CC1)C2(C)C)C(C)(C)C | > 100 | > 100 µM | > 100 | > 100 | > 100 | > 100 | > 100 | – | > 100 | > 100
Oc1c(Cl)cc2cc1-c1cc(cc(Cl)c1O)CCc1c(cc(Cl)c(O)c1Cl)-c1cc(Cl)c(c(Cl)c1O)/C=C\2 | 15.3 | > 50 µM | 20 | 15.6 | – | 14.4 | 19.5 | > 50 µM | 31.5 | –
CCOC(=O)c1c(N2CCCC2)[nH]c(=O)c(C(c2ccc(N(C)C)cc2)c2c(O)c(C(=O)OCC)c(N3CCCC3)[nH]c2=O)c1O | > 100 | – | > 100 | > 100 | > 100 | > 100 | > 100 | > 100 µM | > 100 | > 100
c1ccc2c(Nc3ncco3)cccc2c1 | > 10 | – | > 10 | > 10 | > 10 | > 10 | > 10 | – | > 10 | > 10
CC(CCc1nc2ccccc2s1)(c1ccc(O)cc1)c1ccc(O)cc1 | 34 | – | 29.4 | 33.4 | 32 | 31.3 | 33.1 | – | 43.5 | 32.3
COc1cccc2c1OC1c3ccccc3OCC1(O)C2 (stereo not drawn) | > 100 | – | > 100 | > 100 | > 100 | > 100 | > 100 | > 100 µM | > 100 | > 100
[N-]=[N+]=Nc1nc2ccccc2c(N=[N+]=[N-])c1Cl | > 100 | > 100 µM | > 100 | > 100 | – | > 100 | > 100 | > 100 µM | > 100 | –
O=c1[nH]cc(N=Cc2cc(Cl)ccc2O)c(=O)[nH]1 | > 100 | 52.6 µM | – | 48.9 | > 100 | > 100 | > 100 | 53.3 µM | – | > 100
Cc1cc2c(c(C(=O)NCC(=O)O)c1)Oc1c(cc(C)cc1C(=O)NCC(=O)O)S2 | > 100 | – | > 100 | > 100 | > 100 | > 100 | > 100 | > 100 µM | > 100 | > 100
O=CC(O)C(O)C(O)C(O)COC(=O)NCCCCC(=O)C(F)(F)C(F)(F)C(F)(F)C(F)(F)C(F)(F)C(F)(F)C(F)(F)F (stereo not drawn) | 33.4 | > 100 µM | 30.1 | 60.2 | – | > 100 | 33.8 | > 100 µM | 42.1 | –
CC/C=C/c1cc2c(cc1O)CCC1C2CC[C@@]2(C)C1CC[C@@H]2O (stereo partly drawn) | 14.3 | – | 6.68 | 12.2 | 14.1 | 1.6 | 26.8 | 6.46 µM | 14.2 | 14.3
C/C(=N\Nc1nc2ccccc2[nH]1)c1ncccn1 | 1.74 | 0.0343 µM | > 100 | 0.322 | > 64.3 | 6.7 | > 100 | – | > 100 | 25.8
CC(=O)OCC1OC(SC2=NC(=O)CS2)C(OC(C)=O)C(OC(C)=O)C1OC(C)=O (stereo not drawn) | – | 91.2 µM and 70.7 µM | > 100 | > 100 | > 100 | > 100 | > 100 | 90 µM and > 100 µM | > 100 | –
CC(C)[C@H](C)/C=C/[C@@H](C)C1CC[C@H]2[C@@]34C=C[C@]5(C[C@@H](O)CC[C@]5(C)[C@H]3CC[C@]12C)OO4 (stereo partly drawn) | 42.8 | 57.1 µM | 41.6 | > 100 | – | > 100 | > 100 | – | 78.8 | > 100
C/C(=C\Cc1ccc(F)cc1)CCCCCC/C(C)=C/Cc1ccc(F)cc1 | 33 | – | 19.9 | 45.6 | 21 | 53.8 | 37.9 | – | 48.6 | 37.2
CC(=O)CC(=O)N1CCSC1=S | > 10 | > 10 µM | > 10 | > 10 | – | > 10 | > 10 | > 10 µM | > 10 | > 10
CCOC(=O)c1cc2c3c(c(C(C)=O)c(OC)c2[nH]1)N(C(=O)CC)CC3 | 30.9 | 46.7 µM | 29.6 | 50.5 | – | 34.4 | 89.5 | 26.2 µM | > 100 | 30.6
